The values that follow come from the supplement of paper PMC12317010.

The series can be described thus: collision cross section in nitrogen (drift tube, single-field); higher = larger gas-phase ion size.
Where [1] appears, read: ion type: [M+H], ion source: ESI, ion mode: Positive.
The mark [2] stands for this setting: ion type: [M-H], ion source: ESI, ion mode: Negative.
Setting [3] is: ion type: [M+H], ion source: APCI, ion mode: Positive.
Setting [4] is: ion type: [M+Na], ion source: ESI, ion mode: Positive.
[5] abbreviates: ion source: APCI, ion mode: Positive, ion type: [M]+ (permanent cation).
Setting [6] is: ion source: ESI, ion mode: Positive, ion type: [M]+ (permanent cation).

Where a name gives a salt, the structure may show the parent alone.
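Also: chemical standards at 10 µM analysed by drift tube IMS-QTOF MS in about 3.95 torr nitrogen, mean of duplicate injections differing ≤1%, mass error below 10 ppm.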

Turning to `Cc1ccc(-c2cc(C(F)(F)F)nn2-c2ccc(S(N)(=O)=O)cc2)cc1` [Celecoxib], the “collision cross section in nitrogen” value is recorded as 187.3 Å² under setting [1] and 190.8 Å² under setting [2].
For the compound `O=C(O)COCCN1CCN(C(c2ccccc2)c2ccc(Cl)cc2)CC1` (stereo not drawn) [Cetirizine hydrochloride (1:2)], the “collision cross section in nitrogen” value under setting [3] is reported as 200 Å², the “collision cross section in nitrogen” value under setting [1] amounted to 200.3 Å², the “collision cross section in nitrogen” value under setting [4] is 195.6 Å² and the “collision cross section in nitrogen” value under setting [2] is reported as 195 Å².
Regarding `CCCCCCCCCCCCCCCC[n+]1ccccc1` [Cetylpyridinium bromide], the “collision cross section in nitrogen” value runs as follows: under setting [5], 193.4 Å²; under setting [6], 194.3 Å².
For `CCCCCCCCCCCCCCCC[n+]1ccccc1` [Cetylpyridinium chloride], the “collision cross section in nitrogen” value under setting [5] stood at 193.3 Å² and the “collision cross section in nitrogen” value under setting [6] is on record as 193.7 Å².
On to `C=C(C)C(=O)Nc1ccc(Cl)c(Cl)c1` [Chloranocryl], for which, under setting [2], the “collision cross section in nitrogen” value amounted to 145.8 Å².
In the case of `CON(C)C(=O)Nc1ccc(Br)c(Cl)c1` [Chlorbromuron], under setting [2], the “collision cross section in nitrogen” value stood at 152.8 Å².
On to `Cc1cc(Cl)ccc1N=CN(C)C` [Chlordimeform hydrochloride], for which the “collision cross section in nitrogen” value under setting [3] worked out at 146.2 Å².
For `Cc1cc(Cl)ccc1N=CN(C)C` [Chlordimeform], the “collision cross section in nitrogen” value runs as follows: under setting [3], 145.6 Å²; under setting [1], 146.4 Å².
Regarding `O=C(O)C1C(C(=O)O)C2(Cl)C(Cl)=C(Cl)C1(Cl)C2(Cl)Cl` (stereo not drawn) [Chlorendic acid], under setting [2], the “collision cross section in nitrogen” value worked out at 159 Å².
As for `CCOP(=O)(OCC)OC(=CCl)c1ccc(Cl)cc1Cl` [Chlorfenvinphos], the “collision cross section in nitrogen” value is listed as 168.7 Å² under setting [3], 170.1 Å² under setting [1] and 181 Å² under setting [4].
As to `O=C(NC(=O)c1c(F)cccc1F)Nc1cc(Cl)c(Oc2ncc(C(F)(F)F)cc2Cl)c(Cl)c1` [Chlorfluazuron], the “collision cross section in nitrogen” value by setting is: under setting [1], 221.8 Å²; under setting [4], 225.6 Å²; under setting [2], 224.4 Å².
With `N=C(NCCCCCCNC(=N)NC(=N)Nc1ccc(Cl)cc1)NC(=N)Nc1ccc(Cl)cc1` [Chlorhexidine diacetate], the “collision cross section in nitrogen” value runs as follows: under setting [3], 222.8 Å²; under setting [1], 224.1 Å²; under setting [4], 228.3 Å²; under setting [2], 233.6 Å².
On the same counts, the results for `N=C(NCCCCCCNC(=N)NC(=N)Nc1ccc(Cl)cc1)NC(=N)Nc1ccc(Cl)cc1` [Chlorhexidine dihydrochloride] are 222.7 Å², 222.9 Å², 227.5 Å² and 233.2 Å².
Consider `N=C(NCCCCCCNC(=N)NC(=N)Nc1ccc(Cl)cc1)NC(=N)Nc1ccc(Cl)cc1` [Chlorhexidine], for which the “collision cross section in nitrogen” value reads like this: under setting [3], 222.9 Å²; under setting [1], 222.4 Å²; under setting [4], 226.5 Å².
As for `Nc1cnn(-c2ccccc2)c(=O)c1Cl` [Chloridazon], the “collision cross section in nitrogen” value by setting is: under setting [3], 143.6 Å²; under setting [1], 144 Å²; under setting [4], 158 Å²; under setting [2], 143.7 Å².
Turning to `CN1C(=O)CCS(=O)(=O)C1c1ccc(Cl)cc1` (stereo not drawn) [Chlormezanone], the “collision cross section in nitrogen” value under setting [2] is listed as 154.1 Å².
Still for that read-out and setting: to `O=C1c2ccccc2C(=O)C1C(=O)C(c1ccccc1)c1ccc(Cl)cc1` (stereo not drawn) [Chlorophacinone] belongs 193.2 Å².
For `CN(C)C(=O)Nc1ccc(Oc2ccc(Cl)cc2)cc1` [Chloroxuron], the “collision cross section in nitrogen” value under setting [3] is 175.3 Å², the “collision cross section in nitrogen” value under setting [1] is listed as 174.9 Å² and the “collision cross section in nitrogen” value under setting [4] was determined as 183.1 Å².
For `CN(C)CCC(c1ccc(Cl)cc1)c1ccccn1` (stereo not drawn) [Chlorpheniramine maleate], the “collision cross section in nitrogen” value amounted to 164 Å² under setting [3] and 164.6 Å² under setting [1].
In the same order, the values of `CN(C)CCCN1c2ccccc2Sc2ccc(Cl)cc21` [Chlorpromazine hydrochloride] are 170.8 Å² and 171.2 Å².
For the compound `CC(C)OC(=O)Nc1cccc(Cl)c1` [Chlorpropham], under setting [2], the “collision cross section in nitrogen” value stood at 148.4 Å².
As to `CCOP(=O)(OCC)Oc1nc(Cl)c(Cl)cc1Cl` [Chlorpyrifos oxon], the “collision cross section in nitrogen” value reads like this: under setting [3], 162.3 Å²; under setting [1], 162.7 Å²; under setting [4], 171 Å².
On to `NC(=S)c1c(Cl)cccc1Cl` [Chlorthiamid], for which the “collision cross section in nitrogen” value under setting [2] is on record as 135.9 Å².
Regarding `C[N+](C)(C)CCO` [Choline hydroxide], the “collision cross section in nitrogen” value under setting [6] came to 117.7 Å².
For the compound `O=c1cc(-c2ccccc2)oc2cc(O)cc(O)c12` [Chrysin], the “collision cross section in nitrogen” value came out at 155.4 Å² under setting [3], 154.8 Å² under setting [1] and 157.7 Å² under setting [2].
As for `Cc1ccccc1CO[C@@H]1C[C@@]2(C(C)C)CC[C@]1(C)O2` [Cinmethylin], the “collision cross section in nitrogen” value under setting [4] is reported as 169.7 Å².
For the compound `CCOCCOC(=O)C=Cc1ccc(OC)cc1` [Cinoxate], the “collision cross section in nitrogen” value under setting [4] was found to be 155.6 Å².
In the case of `CC(C)(Oc1ccc(C2CC2(Cl)Cl)cc1)C(=O)O` (stereo not drawn) [Ciprofibrate], under setting [2], the “collision cross section in nitrogen” value was determined as 171.9 Å².
Consider `CCOC(=O)CC(CC(=O)OCC)(OC(C)=O)C(=O)OCC` [Citric acid, triethyl ester, acetate], for which, under setting [4], the “collision cross section in nitrogen” value is given as 175.4 Å².
With `CC(C)=CCCC(C)CC(=O)O` (stereo not drawn) [Citronellic acid], under setting [2], the “collision cross section in nitrogen” value is 148.8 Å².
Turning to `Nc1nc(Cl)nc2c1ncn2[C@H]1C[C@H](O)[C@@H](CO)O1` [Cladribine], the “collision cross section in nitrogen” value reads like this: under setting [3], 157.2 Å²; under setting [1], 157 Å²; under setting [4], 165.8 Å²; under setting [2], 159.5 Å².
As to `CCSC(C)CC1CC(=O)C(C(CC)=NOC/C=C/Cl)=C(O)C1` (stereo not drawn) [Clethodim], the “collision cross section in nitrogen” value under setting [3] is given as 187.7 Å², the “collision cross section in nitrogen” value under setting [1] was 187.7 Å², the “collision cross section in nitrogen” value under setting [4] was determined as 184.9 Å² and the “collision cross section in nitrogen” value under setting [2] was 184.6 Å².
`C#CCOC(=O)[C@@H](C)Oc1ccc(Oc2ncc(Cl)cc2F)cc1` [Clodinafop-propargyl]: the “collision cross section in nitrogen” value under setting [1] worked out at 178 Å² and the “collision cross section in nitrogen” value under setting [4] is given as 176.2 Å².
Turning to `CCc1c(C(=O)O)c(=O)cnn1-c1ccc(Cl)cc1` [Clofencet-potassium], the “collision cross section in nitrogen” value is, setting by setting: under setting [3], 159.2 Å²; under setting [1], 159 Å²; under setting [4], 175.3 Å²; under setting [2], 160.5 Å².
For the compound `CN(C)CCCN1c2ccccc2CCc2ccc(Cl)cc21` [Clomipramine hydrochloride], the “collision cross section in nitrogen” value was found to be 174.5 Å² under setting [3] and 174.5 Å² under setting [1].
On to `Clc1cccc(Cl)c1NC1=NCCN1` [Clonidine hydrochloride], for which the “collision cross section in nitrogen” value came to 147.1 Å² under setting [3], 146.5 Å² under setting [1] and 145.8 Å² under setting [2].
With `CCCCCC(C)OC(=O)COc1ccc(Cl)c2cccnc12` (stereo not drawn) [Cloquintocet-mexyl], the “collision cross section in nitrogen” value stood at 182.1 Å² under setting [3], 181.9 Å² under setting [1] and 195.1 Å² under setting [4].
As for `CCOc1nc(F)cc2nc(S(=O)(=O)Nc3c(Cl)cccc3C(=O)OC)nn12` [Cloransulam-methyl], the “collision cross section in nitrogen” value is given as 191 Å² under setting [3], 190.7 Å² under setting [1], 192 Å² under setting [4] and 190.2 Å² under setting [2].
On to `Oc1ccc(Cl)cc1Cc1ccccc1` [Clorophene], for which, under setting [2], the “collision cross section in nitrogen” value is 149.3 Å².
On to `CN/C(=N\[N+](=O)[O-])NCc1cnc(Cl)s1` [Clothianidin], for which the “collision cross section in nitrogen” value under setting [2] turned out to be 151.8 Å².
With `COc1cc2c(c(OC)c1OC)-c1ccc(OC)c(=O)cc1[C@@H](NC(C)=O)CC2` [Colchicine], the “collision cross section in nitrogen” value was determined as 197 Å² under setting [3], 195.9 Å² under setting [1], 204.3 Å² under setting [4] and 197.3 Å² under setting [2].
With `O=[N+]([O-])O` [Copper(II) nitrate trihydrate], under setting [2], the “collision cross section in nitrogen” value is recorded as 104.1 Å².
Regarding `C[C@]12C[C@H](O)[C@H]3[C@@H](CCC4=CC(=O)CC[C@@]43C)[C@@H]1CC[C@@H]2C(=O)CO` [Corticosterone], the “collision cross section in nitrogen” value under setting [4] is listed as 212.4 Å².
Consider `CN1C(=O)CC[C@H]1c1cccnc1` [Cotinine], for which the “collision cross section in nitrogen” value under setting [1] is on record as 144.8 Å².
Regarding `Cc1ccccc1OP(=O)(Oc1ccccc1)Oc1ccccc1` [Cresyl diphenyl phosphate], the “collision cross section in nitrogen” value under setting [3] is on record as 178.3 Å², the “collision cross section in nitrogen” value under setting [1] came to 178 Å² and the “collision cross section in nitrogen” value under setting [4] came out at 188.4 Å².
Consider `O=C(O)c1cc(=O)c2c(OCC(O)COc3cccc4oc(C(=O)O)cc(=O)c34)cccc2o1` [Cromolyn sodium], for which the “collision cross section in nitrogen” value under setting [1] was 208.8 Å², the “collision cross section in nitrogen” value under setting [4] came to 211.8 Å² and the “collision cross section in nitrogen” value under setting [2] is listed as 186 Å².
In the case of `CC=CC(=O)N(CC)c1ccccc1C` [Crotamiton], the “collision cross section in nitrogen” value under setting [3] is reported as 145.3 Å², the “collision cross section in nitrogen” value under setting [1] turned out to be 145.7 Å² and the “collision cross section in nitrogen” value under setting [4] turned out to be 157 Å².
In the same order, the values of `CNP(=O)(OC)Oc1ccc(C(C)(C)C)cc1Cl` (stereo not drawn) [Crufomate] are 165.2 Å², 165 Å² and 176.3 Å².
For the compound `COc1cc(/C=C/C(=O)CC(=O)/C=C/c2ccc(O)c(OC)c2)ccc1O` [Curcumin], the “collision cross section in nitrogen” value reads like this: under setting [3], 202.8 Å²; under setting [2], 187.7 Å².
Take `CCNc1nc(Cl)nc(NC(C)(C)C#N)n1` [Cyanazine]: the “collision cross section in nitrogen” value reads like this: under setting [3], 155.6 Å²; under setting [1], 155.4 Å².
In the same order, the values of `CSc1nc(NC2CC2)nc(NC(C)(C)C)n1` [Cybutryne] are 162.8 Å² and 162.4 Å².
Consider `O=S(=O)(O)NC1CCCCC1` [Cyclamic acid], for which the “collision cross section in nitrogen” value under setting [2] came out at 139.6 Å².
On to `O=C(O)C1(C(=O)Nc2ccc(Cl)cc2Cl)CC1` [Cyclanilide], for which the “collision cross section in nitrogen” value under setting [2] is given as 156.3 Å².
Turning to `N=c1ccn2c(n1)O[C@H]1[C@H](O)[C@@H](CO)O[C@H]12` [Cyclocytidine], the “collision cross section in nitrogen” value under setting [3] worked out at 143.1 Å², the “collision cross section in nitrogen” value under setting [1] came to 143.5 Å² and the “collision cross section in nitrogen” value under setting [4] is given as 156.7 Å².
